The structures appear in SMILES notation. Values after ≈ are worked out from the molar mass of the structure shown. Active and inactive are the calls of the source. The calls are words filed in the database; no cut-off is given here.

Experimental findings from ChEMBL document CHEMBL4665763, “Molecular Networking-Guided Discovery and Characterization of Stechlisins, a Group of Cyclic Lipopeptides from a Pseudomonas sp” (2020) are described below.

In the assay the test system is Moraxella catarrhalis. Kind of assay: Antimicrobial activity against Moraxella catarrhalis FH6810 after 18 hrs by micro broth dilution assay. It counts as functional.
`CCCCCCC[C@H](O)CC(=O)N[C@H](CC(C)C)C(=O)N[C@H](CC(=O)O)C(=O)N[C@H]1C(=O)N[C@H](CC(C)C)C(=O)N[C@H](CC(C)C)C(=O)N[C@H](CO)C(=O)N[C@@H](CC(C)C)C(=O)N[C@H](CCC(N)=O)C(=O)N[C@@H](CC(C)C)C(=O)N[C@@H](C(C)C)C(=O)N[C@@H](CCC(=O)O)C(=O)O[C@@H]1C` had an MIC above 128 µg/mL.

Turning to `CCCCCCCCC[C@H](O)CC(=O)N[C@H](CC(C)C)C(=O)N[C@H](CC(=O)O)C(=O)N[C@H]1C(=O)N[C@H](CC(C)C)C(=O)N[C@H](CC(C)C)C(=O)N[C@H](CO)C(=O)N[C@@H](CC(C)C)C(=O)N[C@H](CCC(N)=O)C(=O)N[C@@H](CC(C)C)C(=O)N[C@@H]([C@@H](C)CC)C(=O)N[C@@H](CCC(=O)O)C(=O)O[C@@H]1C`, the MIC worked out at 4 µg/mL (≈ 2.78 µM).

As for `CCCCCCC[C@H](O)CC(=O)N[C@H](CC(C)C)C(=O)N[C@H](CC(=O)O)C(=O)N[C@H]1C(=O)N[C@H](CC(C)C)C(=O)N[C@H](CC(C)C)C(=O)N[C@H](CO)C(=O)N[C@@H](CC(C)C)C(=O)N[C@H](CCC(N)=O)C(=O)N[C@@H](CC(C)C)C(=O)N[C@@H](CC(C)C)C(=O)N[C@@H](CCC(=O)O)C(=O)O[C@@H]1C`, the MIC is above 128 µg/mL.

`CCCCCCC[C@H](O)CC(=O)N[C@H](CC(C)C)C(=O)N[C@H](CC(=O)O)C(=O)N[C@H]1C(=O)N[C@H](CC(C)C)C(=O)N[C@H](CC(C)C)C(=O)N[C@H](CO)C(=O)N[C@@H](CC(C)C)C(=O)N[C@H](CCC(N)=O)C(=O)N[C@@H](CC(C)C)C(=O)N[C@@H]([C@@H](C)CC)C(=O)N[C@@H](CCC(=O)O)C(=O)O[C@@H]1C` showed an MIC of 32 µg/mL (≈ 22.7 µM).

For the compound `CCCCC[C@H](O)CC(=O)N[C@H](CC(C)C)C(=O)N[C@H](CC(=O)O)C(=O)N[C@H]1C(=O)N[C@H](CC(C)C)C(=O)N[C@H](CC(C)C)C(=O)N[C@H](CO)C(=O)N[C@@H](CC(C)C)C(=O)N[C@H](CCC(N)=O)C(=O)N[C@@H](CC(C)C)C(=O)N[C@@H]([C@@H](C)CC)C(=O)N[C@@H](CCC(=O)O)C(=O)O[C@@H]1C`, the outcome was inactive.

`CCCCCCC[C@H](O)CC(=O)N[C@H](CC(C)C)C(=O)N[C@H](CCC(=O)O)C(=O)N[C@H]1C(=O)N[C@H](CC(C)C)C(=O)N[C@H](CC(C)C)C(=O)N[C@H](CO)C(=O)N[C@@H](CC(C)C)C(=O)N[C@H](CCC(N)=O)C(=O)N[C@@H](CC(C)C)C(=O)N[C@@H]([C@@H](C)CC)C(=O)N[C@@H](CCC(=O)O)C(=O)O[C@@H]1C` yielded an MIC above 128 µg/mL.

`CCCCC[C@H](O)CC(=O)N[C@H](CC(C)C)C(=O)N[C@H](CCC(=O)O)C(=O)N[C@H]1C(=O)N[C@H](CC(C)C)C(=O)N[C@H](CC(C)C)C(=O)N[C@H](CO)C(=O)N[C@@H](CC(C)C)C(=O)N[C@H](CCC(N)=O)C(=O)N[C@@H](CC(C)C)C(=O)N[C@@H](CC(C)C)C(=O)N[C@@H](CCC(=O)O)C(=O)O[C@@H]1C`: the MIC was above 128 µg/mL.
